Test system: asymmetric di-methyl PABP1 in RKO cells
Assay: RKO methylation assay, In Cell Western (ICW) for asymmetric di-methyl PABP1
Assay type: cell-based
Settings: Homo sapiens, RKO, Cellular potencies, ICW PABP1me2a
Summary of the method: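 RKO cells treated with compound for 48 h at 37 °C, then fixed, permeabilized and immunostained for asymmetric di-methyl PABP1, with DRAQ5 as DNA stain. Infrared 700/800 nm signal ratio normalized to DMSO and 20 μM reference-compound controls; IC50 from triplicate wells.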

IC50 [µM] | Compound
< 5 | CNC[C@@H](O)COc1ccc(Cl)c(-c2nc(NC3CCN(C(=O)OC)CC3)c(C)c(-c3c(C)noc3C)n2)c1 [Example 104-3]
< 5 | CNC[C@@H](O)COc1ccc(Cl)c(-c2nc(-c3c(C)noc3C)c(C)c(N3CC4(CCCCO4)C3)n2)c1 [Example 290-3]
< 5 | CNC[C@@H](O)COc1ccc(F)c(-c2nc(-c3c(C)noc3C)c(C)c(N3Cc4cnn(C)c4C3)n2)c1 [Example 223-3]
< 5 | CNC[C@@H](O)COc1ccc(Cl)c(-c2nc(-c3c(C)noc3C)c(C)c(N3CC4(CCCOC4)C3)n2)c1 [Example 119-3]
< 5 | CNC[C@@H](O)COc1ccc(Cl)c(-c2nc(-c3c(C)noc3C)c(C)c(N3CC4(CCN(C(=O)OC(C)C)CC4)C3)n2)c1 [Example 284-3]
< 5 | CCOC(=O)N1CCC2(CC1)CN(c1nc(-c3cc(OC[C@H](O)CNC)ccc3Cl)nc(-c3c(C)noc3C)c1C)C2 [Example 285-3]
< 5 | CNC[C@@H](O)COc1ccc(Cl)c(-c2nc(-c3c(C)noc3C)c(Cl)c(N3Cc4cccnc4C3)n2)c1 [Example 168-3]
< 5 | CNCC(O)COc1ccc(C)c(-c2nc(NC3CCN(C(=O)OC)CC3)c(C)c(-c3c(C)noc3C)n2)c1 (stereo not shown) [Example 125-3]
< 5 | CNC[C@@H](O)COc1ccc(Cl)c(-c2nc(-c3c(C)noc3C)c(F)c(N3Cc4nccnc4C3)n2)c1 [Example 297-3]
< 5 | CNC[C@@H](O)COc1ccc(Cl)c(-c2nc(-c3c(C)noc3C)c(C)c(N3CCc4nc(C)sc4C3)n2)c1 [Example 141-3]
< 5 | CNC[C@@H](O)COc1ccc(Cl)c(-c2nc(N[C@H]3CO[C@H](C)C3)c(Cl)c(-c3c(C)noc3C)n2)c1 [Example 201-3]
< 5 | CNC[C@@H](O)COc1ccc(Cl)c(-c2nc(-c3c(C)noc3C)c(C)c(N3Cc4[nH]nc(C)c4C3)n2)c1 [Example 224-3]
< 5 | CCOC(=O)N1CC[C@@H](Nc2nc(-c3cc(OC[C@H](O)CNC)ccc3Cl)nc(-c3c(C)noc3C)c2C)C1 [Example 112-3]
< 5 | CNC[C@@H](O)COc1ccc(Cl)c(-c2nc(-c3c(C)noc3C)c(Cl)c(N3CC4(CCOCC4)C3)n2)c1 [Example 229-3]
< 5 | CNC[C@@H](O)COc1ccc(Cl)c(-c2nc(OC[C@H]3CCCO3)c(C)c(-c3c(C)noc3C)n2)c1 [Example 116-3]
< 5 | CNC[C@@H](O)COc1ccc(Cl)c(-c2nc(N[C@H]3CC[C@@H](OC)C3)c(C)c(-c3c(C)noc3C)n2)c1 [Example 212-3]
< 5 | CNC[C@@H](O)COc1ccc(Cl)c(-c2nc(-c3c(C)noc3C)c(C)c(N3Cc4cn[nH]c4C3)n2)c1 [Example 231-3]
< 5 | CNC[C@@H](O)COc1ccc(Cl)c(-c2nc(-c3c(C)noc3C)c(C)c(N3CC4(CCCO4)C3)n2)c1 [Example 121-3]
< 5 | Cc1noc(C)c1-c1nc(-c2cc(OC[C@H](O)CN(C)C)ccc2Cl)nc(N[C@H]2CCN(C3CC3)[C@@H](C)C2)c1C [Example 171-3]

The next lines start with the molecule.

Compound | IC50 [µM]
CNCC(O)COc1cccc(-c2nc(-c3c(C)noc3C)c(C)c(N3CCO[C@@H](CN(C)C(=O)N(C)C)C3)n2)c1 (stereo partly shown) [Example 176-1a] | < 5
CNCC(O)COc1cccc(-c2nc(NC3CCOCC3)cc(-c3ccc4c(c3)OCCO4)n2)c1 (stereo not shown) [Example 657-1a] | ≥ 20
CNCC(O)COc1cccc(-c2nc(-c3c(C)noc3C)cc(N3CCN(C(=O)C4CC4)CC3)n2)c1 (stereo not shown) [Example 133-1a] | < 5
CNCC(O)COc1cc(OC)cc(-c2nc(-c3cnc4cnccn34)cc(N(C)C3CCOCC3)n2)c1 (stereo not shown) [Example 492-1a] | < 5
CNCC(O)COc1cccc(-c2nc(NC3CNC3)c(C)c(-c3c(C)noc3C)n2)c1 (stereo not shown) [Example 1-3] | ≥ 20
CNCC(O)COc1cccc(-c2nc(-c3c(C)noc3C)c(C)c(N3CCN(Cc4ccccc4)C(C(F)F)C3)n2)c1 (stereo not shown) [Example 235-1a] | < 5
CNCC(O)COc1ccc(Cl)c(-c2nc(N[C@H]3CCC[C@@H](OC)C3)c(C)c(-c3c(C)noc3C)n2)c1 (stereo partly shown) [Example 57-3] | < 5
CNCC(O)COc1cccc(-c2nc(N[C@H]3C[C@H](C(C)(C)O)C3)c(C)c(-c3c(C)noc3C)n2)c1 (stereo partly shown) [Example 231-1a] | < 5
CNCC(O)COc1cccc(-c2nc(-c3cccc4ncccc34)cc(N(C)C3CCOCC3)n2)c1 (stereo not shown) [Example 616-1a] | 10 to 20
CNC[C@H](O)COc1ccc(Cl)c(-c2nc(NC3CCN(C(=O)OC)CC3)c(Cl)c(-c3c(C)noc3C)n2)c1 [Example 305-1a] | < 5
CNCC(O)COc1cccc(-c2nc(N[C@H]3CCC[C@H]3O)c(C)c(-c3c(C)noc3C)n2)c1 (stereo partly shown) [Example 218-1a] | < 5
CNCC(O)COc1cccc(-c2nc(N(C)C3CCOCC3)cc(-n3nc(C)cc3C)n2)c1 (stereo not shown) [Example 568-1a] | 10 to 20
CNCC(O)COc1cccc(-c2nc(-c3cnc4c(C(=O)OC)cnn4c3)cc(N(C)C3CCOCC3)n2)c1 (stereo not shown) [Example 482-1a] | < 5
CNCC(O)COc1cccc(-c2nc(NC3CCS(=O)(=O)CC3)cc(-c3c(C)noc3C)n2)c1 (stereo not shown) [Example 60-1a] | 10 to 20
CNCC(O)COc1ccc(Cl)c(-c2nc(NC[C@H]3CCCO3)c(C)c(-c3c(C)noc3C)n2)c1 (stereo partly shown) [Example 6-3] | < 5
CNCC(O)COc1cccc(-c2nc(-c3cnn(CC(C)C)c3)cc(N(C)C3CCOCC3)n2)c1 (stereo not shown) [Example 516-1a] | 5 to 10
CNC[C@@H](O)COc1cccc(-c2nc(NC3CCN(C(=O)OC)C(C)C3)c(C)c(-c3c(C)noc3C)n2)c1 (stereo partly shown) [Example 32-3] | < 5
CNCC(O)COc1cccc(-c2nc(NC3(C)CCOCC3)c(F)c(-c3c(C)noc3C)n2)c1 (stereo not shown) [Example 159-1a] | 10 to 20
CNCC(O)COc1cccc(-c2nc(NC3CCN(CC(F)F)CC3)c(C)c(-c3c(C)noc3C)n2)c1 (stereo not shown) [Example 188-1a] | < 5
CNCC(O)COc1cccc(-c2nc(-c3c(C)noc3C)c(C)c(N3CCn4ccnc4C3)n2)c1 (stereo not shown) [Example 34-3] | 5 to 10
CNCC(O)COc1ccc(Cl)c(-c2nc(NC3(C)CCOCC3)c(Cl)c(-c3c(C)noc3C)n2)c1 (stereo not shown) [Example 137-1a] | < 5
CNC[C@H](O)COc1ccc(Cl)c(-c2nc(-c3c(C)noc3C)c(C)c(N3Cc4cc(F)cnc4C3)n2)c1 [Example 86-3] | < 5
CNCC(O)COc1cccc(-c2nc(N3CCN(C)CC3)cc(N(C)C3CCOCC3)n2)c1 (stereo not shown) [Example 531-1a] | 5 to 10
CNCC(O)COc1cccc(-c2nc(N[C@@H]3CCOC3)c(Cl)c(N3CCOCC3)n2)c1 (stereo partly shown) [Example 376-1a] | 5 to 10

Compound | IC50 [µM]
CNCC(O)COc1cccc(-c2nc(NC3CCCN(CC(F)F)C3)c(C)c(-c3c(C)noc3C)n2)c1 (stereo not shown) [Example 203-1a] | < 5
CNCC(O)COc1cccc(-c2nc(-c3c(C)nn(C(C)C)c3C)cc(N(C)C3CCOCC3)n2)c1 (stereo not shown) [Example 496-1a] | < 5
CNCC(O)COc1cccc(-c2nc(-c3cn(S(C)(=O)=O)c4ncncc34)cc(N(C)C3CCOCC3)n2)c1 (stereo not shown) [Example 483-1a] | < 5
CNCC(O)COc1cccc(-c2nc(-c3ncc(C)n3C)cc(N(C)C3CCOCC3)n2)c1 (stereo not shown) [Example 491-1a] | < 5
CNCC(O)COc1cccc(-c2nc(N[C@H]3C[C@@](C)(OC)C3)c(C)c(-c3c(C)noc3C)n2)c1 (stereo partly shown) [Example 19-3] | < 5
CCOC(=O)N1CCCC(Nc2nc(-c3cccc(OCC(O)CNC)c3)nc(-c3c(C)noc3C)c2C)C1 (stereo not shown) [Example 190-1a] | < 5
CNCC(O)COc1cccc(-c2nc(NC3(C(F)(F)F)CC3)c(C)c(-c3c(C)noc3C)n2)c1 (stereo not shown) [Example 8-3] | < 5
CNCC(O)COc1cccc(-c2nc(-c3c(C)noc3C)c(C)c(N(C)[C@H]3C[C@@](C)(OC)C3)n2)c1 (stereo partly shown) [Example 20-3] | < 5
CC[C@H]1CN(c2nc(-c3cccc(OCC(O)CNC)c3)nc(-c3c(C)noc3C)c2C)CCN1S(=O)(=O)CC (stereo partly shown) [Example 154-1a] | < 5
CNCC(O)COc1cccc(-c2nc(Nc3nccn3C)c(C)c(-c3c(C)noc3C)n2)c1 (stereo not shown) [Example 18-3] | 10 to 20
CNCC(O)COc1cccc(-c2nc(-c3cn(C)cn3)cc(N(C)C3CCOCC3)n2)c1 (stereo not shown) [Example 501-1a] | < 5
CNCC(O)COc1cc(Cl)cc(-c2nc(NC3CCOCC3)c(C)c(-c3c(C)noc3C)n2)c1 (stereo not shown) [Example 47-1a] | < 5
CNCC(O)COc1cccc(-c2nc(-c3c(C)noc3C)c(C)c(N3CCN(C(=O)OCCF)CC3)n2)c1 (stereo not shown) [Example 121-1a] | < 5
CNCC(O)COc1cccc(-c2nc(-c3c(C)noc3C)cc(N3CCN(CCF)[C@H](C)C3)n2)c1 (stereo partly shown) [Example 145-1a] | 5 to 10
CNCC(O)COc1cccc(-c2nc(-c3c(C)noc3C)c(C)c(N3CCN(C(=O)C4CCOCC4)CC3)n2)c1 (stereo not shown) [Example 108-1a] | < 5
CNCC(O)COc1cccc(-c2nc(N[C@@H]3CCOC3)c(C)c(N3CCC4(CCOCC4)C3)n2)c1 (stereo partly shown) [Example 462-1a] | 10 to 20
CNCC(O)COc1cccc(-c2nc(-c3nc(C)cs3)cc(N(C)C3CCOCC3)n2)c1 (stereo not shown) [Example 624-1a] | 10 to 20
CNCC(O)COc1cccc(-c2nc(-c3c(C)noc3C)c(C)c(N3CCC4(CC3)CN(C3CC3)C4)n2)c1 (stereo not shown) [Example 294-1a] | < 5
CNCC(O)COc1cccc(-c2nc(-c3c(C)noc3C)c(C)c(N3C[C@H](C)O[C@@H](C)C3)n2)c1 (stereo partly shown) [Example 199-1a] | < 5
CNCC(O)COc1cccc(-c2nc(-c3c(C)noc3C)cc(N3CCN(CCOC)CC3)n2)c1 (stereo not shown) [Example 139-1a] | < 5
CNCC(O)COc1cccc(-c2nc(-c3c(C)noc3C)cc(N3CCN(C4CC4)CC3)n2)c1 (stereo not shown) [Example 30-1a] | < 5
CNCC(O)COc1cccc(-c2nc(-c3c(C)noc3C)cc(N3CCN(C(C)=O)[C@@H](C)C3)n2)c1 (stereo partly shown) [Example 38-1a] | 5 to 10
CNCC(O)COc1cccc(-c2nc(N[C@H]3CCOC3)c(C)c(N3CCOCC3)n2)c1 (stereo partly shown) [Example 26-1] | 10 to 20
CNCC(O)COc1cccc(-c2nc(N[C@@H]3CCOC3)c(C)c(N3CCN(C)C(=O)C3)n2)c1 (stereo partly shown) [Example 435-1a] | 10 to 20
